Measured values published in patent US10633417B2 (priority 2013, dated 2020).

Test system: Sprague-Dawley rats
Conditions: rat, in vivo

**Q.** For CC(C)C[C@H](CN)CC(=O)O [Pregabalin, pregabalin], which “activity on mechanical allodynia (von Frey), days 14 and 21” value is on record?
**A.** The value was “active”.

**Q.** For GCCSDPRCRYRCR [RgIA], which “OXA-induced pain threshold decrease (von Frey), day 7, 30 min” value is on record?
**A.** The value was “reverted”.
